Consider 4 compounds from patent US20060252670A1, “Method of reducing drug-induced adverse side effects in a patient” (Intercept Pharmaceuticals Inc., priority 2004, published 2006).

Each structure is given as a SMILES string. Where two headings read alike, the source gives them in different places.

The conditions of data set [1]: cited from earlier work.
A short description of data set [2]: Type II diabetic obese patient switched from rosiglitazone to 6ECDCA plus rosiglitazone. The class given is in vivo, human. The following applies: rosiglitazone 8 mg daily 4 weeks then 4 mg daily 6 weeks by mouth. On the procedure: The patient is started on a combination of 6ECDCA (150 mg) and rosiglitizone (2 mg) daily by mouth.
Data set [3] concerns liver fibrosis induced by porcine serum. The experiment in a line: Liver fibrosis induced by 8-week porcine serum administration to rats: 6-ECDCA, rosiglitazone and combination. The class given is in vivo, rat. The following applies: for ALP / ALT / Bilirubin / Liver/b.w.: porcine serum rats, 8 weeks, mean ± SE. How it is done:
To investigate whether 6-ECDCA was effective in regulating PPARγ expression, porcine serum-administered rats (6-8 each group) were randomized to receive 1 and 3 mg/kg 6-ECDCA via gavage 5 times a week. Control rats were administered 3% carboxy-methyl cellulose (CMC) by gavage. At the end of the study, rats were sacrificed under anaesthesia with sodium pentobarbital (50 mg/kg, i.p.) and terminally bled via cardiac puncture. The liver was removed for examination and blood samples were taken.
Groups and duration of treatment are described in Table 1 below. Animals were followed for 8 weeks.
Collagen surface density was quantified using a computerized image analysis system (Image Acquisition System Ver. 005, Delta Sistemi, Rome, Italy) (see Fiorucci et al., supra). Hepatic and urinary content of hydroxyproline were determined by HPLC (LC Varian Prostar HPLC, Varian, Rome, Italy) as described in Fiorucci et al. (supra). The ANOVA followed by Dunnett or Bonferroni correction for multiple comparison were applied when appropriate during statistical analysis. EC50 were calculated using Prism III (Graphpad Software. Inc., San Diego, Calif.).

The test system of the next data set is liver fibrosis. The data set can be described thus: Gene expression in three rat models of liver fibrosis (porcine serum, BDL, CCl4) treated with FXR ligand. The class given is in vivo. The following applies: rats, 3 mg/kg. On the procedure:
In order to further investigate whether in vivo administration of FXR ligands would modulate the expression of PPARγ, three different models of liver fibrosis were used, i.e., porcine serum administration, bile duct ligation (BDL), and CCL4 intoxication. Male Wistar rats (200-250 g) were obtained from Charles River Breeding Laboratories (Monza, Italy) and maintained on standard laboratory rat chow on a 12 hour light/dark cycle. […] (2004) Gastroenterology 14:1444-1356). […] At the end of the study, rats were sacrificed under anaesthesia with sodium pentobarbital (50 mg/kg, i.p.) and terminally bled via cardiac puncture. The liver was removed for examination and blood samples were taken. In the second model, hepatic fibrosis was induced by bile duct ligation (BDL) of 8-9 weeks old male Wistar rats (see Fiorucci et al. (2004) Gastroenterology 14:1444-1356 and Fiorucci et al. (2004) Hepatology 39:365-75). Sham operated rats (n=6) received the same laparoscopic procedure, except that the bile duct was manipulated, but not ligated and sectioned. A total of 24 animals were operated. […] Animals were then treated for 14 days. […] Control rats were injected i.p. with 100 μl/100 g body weight of paraffin oil alone.

The test system of data set [4] is primary cultures of rat HSCs. The data set can be described thus: PPARγ expression in primary cultures of rat HSCs with FXR ligands (qRT-PCR, Western blot). The class given is cell-based. On the procedure:
However, whether or not FXR interacts with PPARγ, has so far been unknown. In order to investigate if FXR interacts with PPARγ, in vitro studies were performed on primary cultures of rat HSCs and HSC-T6 (i.e., a rat immortalised HSCs line). Primary rat HSCs were isolated from control and cirrhotic rats according to techniques known in the art. […] Cells were cultured at 37° C. in an atmosphere of 5% CO2 in Dulbecco's modified minimal essential medium (Gibco BRL Life Technologies, Rockville, Md.) containing 10% fetal calf serum (FCS), 2 mM L-glutamine, and 5,000 IU/ml penicillin/[…] streptomycin. […] HSCs were incubated with or without 6-ECDCA, 1 μM, for 24 hours at 37° C. in DMEM. […] The proteins were then transferred to nitrocellulose membranes (Biorad, Hercules, Calif.) and probed with primary antibodies to FXR and PPARγ (Santa Cruz Biotechnology, Santa Cruz, Calif.).
PPARγ expression normally decreases during HSC trans-differentiation. […] To further investigate whether ligands of FXR and PPARγ might cooperate in repressing α1 (1) collagen gene expression, HSC-T6 were exposed to effective concentrations of the two ligands.
(In general: Real-time PCR tracks product formation cycle by cycle.)

In the case of `CN(CCOc1ccc(CC2SC(=O)NC2=O)cc1)c1ccccn1` (centres unmarked) [rosiglitazone], in data set [1] (4 mg/day in combination with insulin (Raskin et al. 2001)), the incidence of edema is 13.1%. Moreover, the incidence of edema entry in data set [1] (8 mg/day in combination with insulin (Raskin et al. 2001)) was “about 16.2%”. Further, in data set [2], the edema entry is on record as “signs of increasing peripheral edema” and the “weight gained since initiating TZD therapy” value is on record as 6 kg.
For the compound `CCc1ccc(CCOc2ccc(CC3SC(=O)NC3=O)cc2)nc1` (centres unmarked) [pioglitazone], in data set [1] (15 or 30 mg/day in combination with insulin (Rubin et al. 1999)), the “combined incidence of edema” value is listed as 15.3%.
Regarding `CC[C@H]1[C@@H](O)[C@@H]2[C@H](CC[C@]3(C)[C@@H]([C@H](C)CCC(=O)O)CC[C@@H]23)[C@@]2(C)CC[C@@H](O)C[C@@H]12` [6-ECDCA], the “expression of selected pro-fibrogenetic markers (α-SMA, fibronectin, TGFP1)” value in data set [3] (1 mg/kg) is listed as “reduced”. The “histological score and liver hydroxyproline content” value in data set [3] (1 mg/kg, in comparison to porcine serum alone) is given as “slightly reduced”. Moreover, the “protection against development of liver fibrosis” value in data set [3] (3 mg/kg) was “effectively protected”. Besides, the “increase of liver PPARγ mRNA” value in data set [3] (3 mg/kg alone) is 3-4 fold. In addition, in data set [3] (3 mg/kg, P<0.05 versus control and porcine serum alone), the “increase of hepatic expression of UCP-2” value is 2-4 fold. The “liver function as measured by plasma ALT, alkaline phosphatase and bilirubin” value in data set [3] (1 and 3 mg/kg, P>0.05 versus control and porcine serum-treated rats) is reported as “did not affect liver function”. In addition, in data set [3] (oral 1 mg/kg (each drug)), the ALP came out at 26.6 ± 2.5 U/dl, the ALT amounted to 47.4 ± 2.4 U/L, the Bilirubin turned out to be 0.3 ± 0.01 mg/dL and the Liver/b.w. is given as 3.8 ± 0.3%. In data set [3] (oral 3 mg/kg (each drug)), the ALP stood at 21.8 ± 5.2 U/dl, the ALT is 41.9 ± 5.3 U/L, the Bilirubin came out at 0.2 ± 0.01 mg/dL and the Liver/b.w. amounted to 2.9 ± 0.2%. In the data set on liver fibrosis, the “increase of FXR mRNA” value came out at 1.8 fold and the “increase of SHP mRNA” value is recorded as 4 fold. For the same compound, in data set [4] (primary HSCs grown seven days, 1 μM), the “increase in PPARγ mRNA and protein” value was 40 fold.
For the compound `CC(C)c1onc(-c2c(Cl)cccc2Cl)c1COc1ccc(/C=C/c2cccc(C(=O)O)c2)c(Cl)c1` [GW4064, reference compound], in data set [4] (primary HSCs), the “downregulation of PPAR-γ caused by HSCs activation” value is reported as “prevented the downregulation”.
